The values that follow come from patent US7417043B2, “Modulators of dopamine neurotransmission” (NeuroSearch Sweden AB, priority 1999, dated 2008).

One data set concerns non-pre-treated rat. Nature of the data set: In vivo test: behavior, motility meter, non-pre-treated rats. The conditions noted are these: for behavioral (motor) activity: 60 min session.
In data set [1] the test system is 3,4-dihydroxyphenylacetic acid in the striatum. Nature of the data set: In vivo test: neurochemistry, DOPAC in brain tissue. Also on record: species or system rat. The conditions noted are these: for 3,4-dihydroxyphenylacetic acid in the striatum: rat. The text has this: (§1) In vivo Test: Neurochemistry
(§2) After the behavioral activity sessions the rats were decapitated and their brains rapidly taken out and put on an ice-cold petri-dish. The limbic forebrain, the striatum, the frontal cortex and the remaining hemispheral parts of each rat were dissected and frozen. Each brain part was subsequently analyzed with respect to its content of monoamines and their metabolites. The monoaminergic indices analyzed were dopamine (DA), 3,4-dihydroxyphenylacetic acid (DOPAC), homovanillic acid (HVA), 3-methoxytyramine (3-MT), serotonin (5-HT), 5-hydroxyindole acetic acid ([…]), and noradrenaline (NA).

For data set [2], the system named is 5-hydroxyindoleacetic acid in the striatum. In words: In vivo test: neurochemistry, 5-hydroxyindoleacetic acid in brain tissue. The conditions noted are these: rat; for 5-hydroxyindoleacetic acid in the striatum: 50 μmol/kg s.c.
Excerpt: as §1
as §2, with “(NA). All monoaminergic indices in the dissected tissue were analyzed by means of HPLC with electrochemical detection as described by Svensson K, et al., 1986, Naunynschmiedeberg's Arch Pharmacol 334: 234-245 and references cited therein.” for “(NA).”

Another data set has as its system serotonin (5-HT). Nature of the data set: In vivo test: neurochemistry, serotonin in brain tissue. The conditions noted are these: rat, 50 μmol/kg s.c.
Excerpt: as §1
as §2, with “(NA). All monoaminergic indices in the dissected tissue were analyzed by means of HPLC with electrochemical detection as described by Svensson K, et al., 1986, Naunynschmiedeberg's Arch Pharmacol 334: 234-245 and references cited therein.” for “(NA).”

For data set [3], the system named is serotonin behavioral syndrome. In words: Serotonin behavioral syndrome. The class given is in vivo. The conditions noted are these: rat.
A further data set concerns the target T1, 5-HT1A receptor (Homo sapiens, UniProt P08908).
T1 sequence (P08908 1-422): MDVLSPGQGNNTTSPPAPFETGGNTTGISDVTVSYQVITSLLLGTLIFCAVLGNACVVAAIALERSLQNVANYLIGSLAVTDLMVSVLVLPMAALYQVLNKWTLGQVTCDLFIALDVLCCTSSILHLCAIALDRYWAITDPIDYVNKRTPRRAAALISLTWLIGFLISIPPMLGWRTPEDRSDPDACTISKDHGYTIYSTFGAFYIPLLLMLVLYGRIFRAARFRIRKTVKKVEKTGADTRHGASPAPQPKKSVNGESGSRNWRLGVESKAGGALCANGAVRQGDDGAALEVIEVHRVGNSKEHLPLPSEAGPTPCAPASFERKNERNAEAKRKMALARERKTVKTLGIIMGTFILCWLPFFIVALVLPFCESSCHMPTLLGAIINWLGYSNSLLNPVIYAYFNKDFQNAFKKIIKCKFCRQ
The conditions noted are these: reported in WO 93/00313; cited from earlier work.

Data set [4] has as its system rats pre-treated with d-amphetamine. In words: In vivo test: behavior, d-amphetamine induced hyperactivity.
A further data set deals with habituated rats. The conditions noted are these: animals habituated to the motilitymeter box, 50 μmol/kg s.c.
For data set [5], the system named is rats pre-treated with dizolcipine (Mk-801). The settings on record: Mk-801 0,7 mg/kg i.p.; test compound 50 μmol/kg sc.
The test system of the next data set is sigma receptor. The conditions noted are these: 10 μmol/L, rat brain membranes.
Where [6] appears, read: non-pre-treated rat, 50 μmol/kg s.c.
[7] abbreviates: non-pre-treated rat, 33 μmol/kg (s.c.).

Structures can show the parent of a compound that is named as a salt.

The term melting point denotes the temperature of the solid-liquid transition. What is called IC50 is the concentration that inhibits the measured activity by half.

As to `CCCN1CCN(c2cccc(S(C)(=O)=O)c2)CC1` (as salt: HCl), the melting point was determined as 233 °C.

`CCCN1CCC(c2cccc(C(F)(F)F)c2)CC1` (as salt: HCl) registered a melting point of 195 °C.

`CCCCN1CCC(c2cccc(C(F)(F)F)c2)CC1` (as salt: HCl) [Example 5, 1-Butyl-4-(3-trifluoromethyl-phenyl)piperidine]: the melting point is 222 °C.

For the molecule `CCN1CCC(c2cccc(S(C)(=O)=O)c2)CC1` (as salt: HCl) [Example 8, 4-(3-Methanesulfonyl-phenyl)-1-ethyl-piperidine], the melting point was 158 °C.

`CC(C)N1CCC(c2cccc(S(C)(=O)=O)c2)CC1` (as salt: HCl) [Example 9, 1-Isopropyl-4-(3-methanesulfonyl-phenyl)-piperidine]: the melting point came to 220 °C.

Regarding `CC(C)CN1CCC(c2cccc(S(C)(=O)=O)c2)CC1` (as salt: HCl) [Example 11, 1-Isobutyl-4-(3-methanesulfonyl-phenyl)-piperidine], the melting point is 212 °C.

For `CCCN1CCC(c2cccc(C#N)c2)CC1` (as salt: fumarate), the melting point turned out to be 122 °C.

Turning to `CCCN1CCN(c2cccc(OS(C)(=O)=O)c2)CC1` (as salt: fumarate) [Example 17, Methanesulfonic acid 3-(4-propyl-piperazin-1-yl)-phenyl ester], the melting point was 143 to 144 °C.

Regarding `CCCN1CCN(c2cccc(C(C)=O)c2)CC1` (as salt: oxalate), the melting point is 119 °C.

With `CCCN1CCN(c2ccccc2OC)CC1` [1-(2-methoxy-phenyl)-4-propyl piperazine], in the data set with non-pre-treated rat (setting [6]), the “behavioral (motor) activity” value worked out at 67±34 cm/60 min. In data set [1] (50 μmol/kg s.c.), the “3,4-dihydroxyphenylacetic acid in the striatum” value (“3,4-dihydroxyphenylacetic acid” for short) is reported as 3836±65 ng/g tissue.

With `CS(=O)(=O)c1cccc(C2CCN(Cc3ccccc3)CC2)c1` [1-benzyl-4-(3-methanesulfonyl-phenyl)-piperidine], the “5-hydroxyindoleacetic acid in the striatum” value (“5-hydroxyindoleacetic acid” below) in data set [2] is listed as 487±7 ng/g tissue. Besides, in the data set on serotonin (5-HT), the “serotonin (5-HT)” value is recorded as 345±18 ng/g tissue. Moreover, in data set [3], the serotonin behavioral syndrome entry is recorded as “induces the serotonin behavioral syndrome”.

For the molecule `FC(F)(F)c1cccc(N2CCN(CCc3ccccc3)CC2)c1` [1-phenethyl-4-(3-trifluoromethyl-phenyl)-piperazine], the “3,4-dihydroxyphenylacetic acid” value in [1] (50 μmol/kg s.c.) is recorded as 1406±77 ng/g tissue. Also, in data set [2], the “5-hydroxyindoleacetic acid” value came to 289±16 ng/g tissue. Further, the “serotonin (5-HT)” value with serotonin (5-HT) is reported as 282±6 ng/g tissue. The IC50 at 5-HT1A receptor was 0.0203 µM.

Regarding `CCCN1CCN(c2ccccc2)CC1` [1-phenyl-4-propyl-piperazine], the behavioral activity in the data set with non-pre-treated rat (setting [7]) amounted to 1923±204 cm/60 min.

Take `CCCN1CCN(c2cccc(C(F)(F)F)c2)CC1` [1-propyl-4-(3-triflouro-methyl-phenyl) piperazine]: in the data set with non-pre-treated rat (setting [6]), the “behavioral (motor) activity” value was determined as 271±137 cm/60 min. Also, the “3,4-dihydroxyphenylacetic acid” value in [1] (50 μmol/kg s.c.) stood at 3358±162 ng/g tissue.

On to `CS(=O)(=O)c1cccc(N2CCN(CCO)CC2)c1` [2-[4-(3-methanesulfonyl-phenyl)piperazin-1-yl]-ethanol], for which the behavioral activity in the data set with non-pre-treated rat (setting [7]) is recorded as 3782±962 cm/60 min. Besides, the “3,4-dihydroxyphenylacetic acid” value in data set [1] (33 μmol/kg s.c.) is 1239±162 ng/g tissue.

Take `Oc1cccc(C2CCN(Cc3ccccc3)CC2)c1` [3-(1-Benzyl-piperidin-4-yl)-phenol, 3-(1-benzyl-piperidin-4-yl)-phenol]: the “5-hydroxyindoleacetic acid” value in [2] is given as 492±26 ng/g tissue. For the same molecule, the “serotonin in the limbic region (5-HT)” value in the data set with serotonin (5-HT) (limbic region) is given as 677±20 ng/g tissue.

For the molecule `CCCN1CCN(c2cccc(C#N)c2)CC1` [3-(4-Propyl-piperazine-1-yl)-benzonitrile], the behavioral activity in the data set with non-pre-treated rat (rat, 100 μmol/kg s.c.) amounted to 634±266 cm/60 min. The “3,4-dihydroxyphenylacetic acid” value in data set [1] (100 μmol/kg s.c.) worked out at 4498±243 ng/g tissue. This molecule also yielded a 5-hydroxyindole acetic acid in data set [2] (100 μmol/kg s.c.) of 484±26 ng/g tissue.

Take `CCCN1CCC(c2ccc(S(C)(=O)=O)cc2)CC1` [4-(4-methanesulphonyl-phenyl)-1-propyl piperidine]: the “3,4-dihydroxyphenylacetic acid” value in data set [1] (50 μmol/kg s.c.) is reported as 928±51 ng/g tissue.

Consider `CCCN1CCC(c2ccccc2)CC1` [4-phenyl-1-propyl-piperidine], for which the behavioral activity in the data set on non-pre-treated rat (setting [7]) was 2553±471 cm/60 min. Also, the “3,4-dihydroxyphenylacetic acid” value in [1] (33 μmol/kg s.c.) was 1190±70 ng/g tissue. Also, the “behavioral activity in the d-amphetamine stimulated” value in [4] (d-amphetamine pre-treated, test compound 33 μmol/kg) came to 13764±2919 cm/60 min.

With `CCCN1CCC(c2cccc(S(C)(=O)=O)c2)CC1` [Example 6, 4-(3-Methanesulfonyl-phenyl)-1-propyl-piperidine], the “behavioral (motor) activity” value in the data set on non-pre-treated rat (setting [6]) was found to be 2879±398 cm/60 min. Moreover, the “4-dihydroxyphenylacetic acid in the striatum” value in data set [1] (habituated animals, 50 μmol/kg s.c.) is on record as 2074±144 ng/g tissue. Moreover, the “3,4-dihydroxyphenylacetic acid” value in [1] (50 μmol/kg s.c.) is 1703±19 ng/g tissue. This molecule showed a behavioral activity in the data set on habituated rats of 1243±72 cm/60 min. Moreover, the “behavioral activation induced by dizolcipine (Mk-801)” value in data set [5] came out at 18197±1389 cm/60 min. The “inhibition of [3H]-DTG binding” value with sigma receptor is recorded as < 50%. In addition, in data set [4] (d-amphetamine 1.5 mg/kg s.c., test compound 50 μmol/kg s.c.), the d-Amphetamine hyperactivity worked out at 1839±344 cm/60 min.

On to `CCCN1CCC(c2cccc(OS(C)(=O)=O)c2)CC1` [Example 14, Methanesulfonic acid 3-(1-propyl-piperidin-4-yl)-phenyl ester], for which, in the data set on non-pre-treated rat (rat, 50 μmol/kg s.c., 30 min session), the behavioral activity amounted to 2126±240 cm/30 min. Further, in data set [1] (50 μmol/kg s.c.), the “3,4-dihydroxyphenylacetic acid” value was found to be 3208±236 ng/g tissue.

For `Br.CCCN1CCC(c2cccc(O)c2)CC1` [preparation 14, 3-(1-Propyl-piperidin-4-yl)-phenol×HBr], the “3,4-dihydroxyphenylacetic acid” value in data set [1] (50 μmol/kg s.c.) is 1169±42 ng/g tissue.
